Data taken from patent publication US6214801A, “Imidazo[1,2-a]pyridine C-nucleosides as antiviral agents” (The Regents of the University of Michigan, priority 1999, dated 2001).
pIC50: −log10 of the molar value. Read-outs that look alike come from different tables or passages of the source.

What was measured:
[1] = in vitro; format: cell-based, human; details: human, hff cells
Procedure: (§1) KB cells (available from the American Type Culture Collection (ATCC) 12301 Parklawn Drive, […], Md. 20852 (ATCC CCL 17)), an established human cell line derived from an epidermal oral carcinoma, were grown in minimal essential medium (MEM) (Sigma) with Hanks salts (MEM(H)) supplemented with 5% fetal calf serum. Human foreskin fibroblasts (HFF cells) (provided by the University of Michigan Hospital) and African green monkey kidney cells (BSC-1) (ATTC CCL 26) cells were grown in MEM with Earl salts (MEM(E)) supplemented with 10% fetal bovine serum. Cells were passaged according to conventional procedures and as described in Shipman, C., Jr. et al. (1976) Antimicrob. Agents Chemother. Vol. 9:120 and incorporated herein by reference. Briefly, cells were passaged at 1:2 to 1:10 dilutions according to conventional procedures by using 0.05% trypsin plus 0.02% EDTA in a HEPES buffered salt solution. HFF cells were passaged onlv at 1:2 dilutions.
(§2) Two different methods were used to evaluate cytotoxicity of the compounds. First, cytotoxicity produced in stationary HFF cells was determined by microscopical examination of cells not affected by the virus used in the plaque assay. Second the effect of compounds on KB cells during two population doubling times was determined by crystal violet staining and spectrophotometric quantitation of dye eluted from stained cells. This method has been utilized for the analysis of ganciclovir and zidovudine (See Prichard, M. N. et al. Antiviral Res. (1991) Vol. 35:1060-1065).

[2] = system: HSV-1; assay: HSV-1 ELISA assay; format: cell-based, herpes simplex virus type 1, KOS strain
Procedure: as §1
(§3) A plaque purified isolate, Po, of the Towne strain of HCMV was used in all experiments and was a gift of Dr. Mark Stinski, University of Iowa. The KOS strain of HSV-1 was used and was provided by Dr. Sandra K. Weller, University of Connecticut. Stock preparations of HCMV and HSV-1 were prepared and titered as known to those of skill and the art and described in Turk, S. R. et al. (1987) Antimicrob. Agents Chemother. Vol. 31:544-550 and Shipman, C., Jr., et al. (1990) J. Virol. Methods Vol. 28:101-106, each incorporated herein by reference.
Briefly, high titer HSV-1 stocks were prepared as follows. Nearly confluent monolayer cultures of KB cells were grown in 32 oz. glass bottles containing MEM(E) buffered with 25 mM HEPES and supplemented with 5% fetal bovine serum and 0.127 giliter L-arginine (VGM, virus growth medium). The cultures were infected at a low input multiplicity to reduce the formation of defective virus. After cell cytopathology reached "three to four plus", the cells were harvested by vigorous shaking, and concentrated by centrifugation (800×g for 5 min.). The resulting virus pools were stored at -760C until retrieved for use in experiments.
HSV-1 was titered using monolayer cultures of BSC-1 cells. Cells were planted at 3×10^5 cells/well using 6-well cluster dishes. MEM(E) supplemented with 10% fetal bovine serum was employed as medium. After 22-24 h, cells were 90% confluent and were inoculated in triplicate using at least three ten-fold dilutions with 0.2 ml of the virus suspension to be assayed and incubated in a humidified 4% CO2 -[…] atmosphere for one hour to permit viral adsorption. Following virus adsorption, the cell sheet was overlayed with 5 ml of MEM(E) with 5% serum plus 0.5% methocel (4000 CPS) and incubated an additional two to three days. Cells were fixed and stained with 0.1% crystal violet in 20% methanol and macroscopic plaques enumerated.
(§4) HCMV plaque reduction experiments were performed with monolayer cultures of HFF cells by a procedure similar to that referenced above for titration of the viruses and described in Devivar, R. V. et al. (1994) J. Med. Chem. Vol. 37:2942-2949. Activity of compounds against HSV-1 was evaluated using an ELISA assay.
ELISA techniques according to standard procedures were also used to determine activity against HSV-1. Drug effects were calculated as a percentage of the reduction in virus titers in the presence of each drug concentration compared to the titer obtained in the absence of drug. Ganciclovir was used as a positive control in all experiments.

[3] = Growth cytotoxicity in KB cells (crystal violet staining); format: cell-based; details: human, two population doubling times, read-out: 50% Inhibitory Concentration IC50, Cytotoxicity, Growth (KB cells)
Procedure: as §1, §2

[4] = system: HCMV; assay: HCMV plaque (focus) reduction assay in HFF cells; format: cell-based; details: for pIC50: Human betaherpesvirus 5, HFF cells, 7 to 10 days, read-out: 50% Inhibitory Concentration IC50, Antiviral Activity, HCMV (plaque assay in HFF cells); for antiviral activity (in words): Table 5
Procedure: as §1, §3
Stock HCMV was prepared by infecting HFF cells at a multiplicity of infection (m.o.i.) of less that 0.01 plaque-forming units (p.f.u.) per cell. Cell growth medium was changed every four days until cytopathology was evident in all cells (approximately 21 days). Supernatant fluids were retained as the virus stock. Four days later, the remaining cells were disrupted by three cycles of freeze-thawing and the cell plus medium held as an additional source of virus. Storage was in liquid nitrogen.
HCMV was titered in 24-well cluster dishes which were plated to contain 5×10^4 HFF cells/well, grown as described above. When the cells were 70 to 80% confluent, 0.2 ml of the virus suspension was added per well and adsorbed as described above. At least three ten-fold dilutions of each preparation were used. Following virus adsorption, the cell sheets were overlayed with 0.5% methocel (4000 CPS) in maintenance medium [MEM(E) with 1.1 g/liter NaHCO3, 100 units/ml penicillin G, 100 μg/ml streptomycin, and 5% fetal bovine serum]. The cultures were incubated in a humidified atmosphere of 4% CO2 -96% air. Viral plaques were visible 5 to 7 days after infection using at least 10-fold magnification. Cells were fixed and stained by a 10-minute exposure to a 0.1% solution of crystal violet in 20% methanol 7 to 12 days after infection. Microscopic foci were enumerated at 20-fold magnification using a Nikon Profile Projector.
as §4
The effect of compounds of the replication of HCMV was measured using a plaque (focus) reduction assay. For the former, HFF cells in 24-well culture dishes were infected with approximately 50 p.f.u. of HCMV per well using the procedures detailed above. Compounds dissolved in growth medium were added in four to six selected concentrations to duplicate wells following virus adsorption. Following incubation at 37 °C for 7 to 10 days, cell sheets were fixed, stained and microscopic plaques were enumerated as described above. Drug effects were calculated as a percentage of reduction in number of plaques in the presence of each drug concentration compared to the number observed in the absence of drug. […]

[5] = system: HFF cells; assay: in vitro; format: cell-based, human
Procedure: as §1, §2

[6] = system: HCMV; details: background; cited from earlier work
[7] = system: HIV-1; assay: HIV-1 replication, reverse transcriptase (RT) assay in CEM cells; format: cell-based, HIV-1 strain IIIB; details: Table 6
Procedure: (§5) CEM cells and strain IIIB of HIV-1 were obtained through courtesy of Dr. Louis S. Kurcera, Boman Gray School of Medicine, Wake Forest University. CEM cells were grown in suspension culture and passaged through conventional procedures.
The activity of compounds against HIV-1 replication was determine by using reverse transcriptase (RT) as a marker for HIV-1. Strain IIIB of HIV-1 was grown in CEM cells maintained in suspension culture as detailed previously (see Kucera et al. AIDS Res. Human Retroviruses, 1993, Vol. 9, pp. 307-314). The assay measured the presence of HIV in supernatants of infected CEM cells by determining the amount of RT activity. Cells were grown, infected with HIV-1, and incubated in the presence of seven concentrations (one-half log10 dilutions) of the test compounds beginning at 1 or 100 μM concentration, depending on the compound to be assayed. Procedures and the RT assay were performed as detailed previously (see White et al., Antiviral Res. 1991, Vol. 16, pp. 257-266).

[8] = Growth cytotoxicity in CEM cells; format: cell-based; details: human, read-out: 50% Inhibitory Concentration IC50, Cytotoxicity, Growth (CEM cells)
Procedure: as §5

[9] = Human alphaherpesvirus 1; read-out: 50% Inhibitory Concentration IC50, Antiviral Activity, HSV-1 (ELISA assay)

Molecule	CC50 [1]	pIC50 [2, 9]	CC50 [3]	pIC50 [4]	cytotoxicity (in words) [5]	antiviral activity (in words) [4]	antiviral activity of known compounds (in words) [6]	pIC50 ([2]; Human alphaherpesvirus 1, read-out: 50% Inhibitory Concentration IC50, Antiviral Activity, HSV-1 (ELISA assay))	HIV-1 antiviral activity (in words) [7]	CC50 [8]
OC[C@H]1O[C@@H](c2c(Cl)ccc3nc(Cl)cn23)[C@H](O)[C@@H]1O [Compound 36, 2,6-Dichloro-5-(β-D-ribofuranosyl)imidazo[1,2-a]pyridine]	> 100 µM	< 4.00	> 100 µM	< 4.00	–	–	–	–	–	–
OC[C@H]1O[C@H](c2c(Cl)ccc3nc(Cl)cn23)[C@H](O)[C@@H]1O [Compound 38, 2,6-Dichloro-5-(α-D-ribofuranosyl)imidazo[1,2-a]pyridine]	> 100 µM	< 4.00	> 100 µM	< 4.00	–	–	–	–	–	–
Clc1cn2cc(Cl)c(Cl)c(Cl)c2n1 [Compound 18, 2,6,7,8-Tetrachloro-imidazo[1,2-a]pyridine]	> 100 µM	< 4.00	> 100 µM	< 4.00	–	–	–	–	–	–
OC[C@H]1O[C@@H](c2c(Cl)c(Cl)cc3nc(Cl)cn23)[C@H](O)[C@@H]1O [Compound 42, 2,6,7-Trichloro-5-(β-D-ribofuranosyl)imidazo[1,2-a]pyridine]	> 100 µM	< 4.00	> 100 µM	< 4.00	–	–	–	–	–	–
O[C@H]1[C@@H](O)CO[C@H]1c1c(Cl)nc2cc(Cl)c(Cl)cn12 [Compound -29]	–	–	–	–	very low cytotoxicity	excellent antiviral activity	–	–	–	–
OC[C@H]1O[C@@H](n2c(Br)nc3cc(Cl)c(Cl)cc32)[C@H](O)[C@@H]1O [BDCRB, 2-bromo-5,6-dichloro-1-(2'-β-D-ribofuranosyl)-benzimidazole]	–	–	–	–	–	–	useful against HCMV infections	–	–	–
O[C@@H]1[C@H](O)CO[C@@H]1c1c(Cl)nc2cc(Cl)c(Cl)cn12 [Compound +29, 2,6,7-trichloro-3-(α-D-erythrofuranosyl)imidazo[1,2-α]pyridine]	> 100 µM	–	> 100 µM	5.31	very low cytotoxicity	excellent antiviral activity	–	4.10	–	–
O[C@H]1[C@@H](O)CO[C@H]1c1c(Cl)nc2cc(Cl)c(Cl)cn12 [Compound -29, 2,6,7-dichloro-3-(α-L-erythrofuranosyl)imidazo[1,2-α]pyridine]	> 100 µM	< 4.00	> 100 µM	4.77	–	–	–	–	–	–
OC[C@H]1O[C@H](c2c(Cl)c(Cl)cc3nc(Cl)cn23)[C@H](O)[C@@H]1O [Compound 43, 2,6,7-Trichloro-5-(α-D-ribofuranosyl)imidazo[1,2-a]pyridine]	> 100 µM	< 4.00	> 100 µM	< 4.00	–	–	–	–	–	–
Clc1cn2cc(Cl)c(Cl)cc2n1 [Compound 16, 2,6,7-Trichloro-imidazo[1,2-a]pyridine]	> 100 µM	< 4.00	> 100 µM	< 4.00	–	–	–	–	–	–
5-(5'-O-[(tert-Butyl)dimethylsilyl]-2',3'-O-isopropylidene-β-D-ribofuranosyl)-imidazo[1,2-a]pyridine [Compound 44]	–	–	–	–	–	–	–	–	HIV-1 antiviral activity at non-cytotoxic concentrations	–
O[C@@H]1[C@H](O)CO[C@H]1c1c(Cl)nc2cc(Cl)c(Cl)cn12 [Compound -28, 2,6,7-Trichloro-3-(β-D-erythrofuranosyl)imidazo[1,2-a]pyridine]	> 100 µM	< 4.00	> 100 µM	< 4.00	–	–	–	–	–	–
OC[C@H]1O[C@@H](c2cccc3nccn23)[C@H](O)[C@@H]1O [Compound 45, 5-(β-D-Ribofuranosyl)imidazo[1,2-a]pyridine]	> 100 µM	< 4.00	> 100 µM	< 4.00	–	–	–	–	–	–
Clc1cc2nc(Cl)c(C3C=CCO3)n2cc1Cl (racemic) [Compound 26, 2,6,7-Trichloro-3-(2',3'-dideoxy-2',3'-didehydro-β-D/ L-erythro-furanosyl)-imidazo[1,2-a]pyridine]	222 µM	< 4.00	> 100 µM	4.49	–	–	–	–	–	> 100 µM
Clc1ccc2nc(Cl)cn2c1 [Compound 12, 2,6-Dichloro-imidazo[1,2-a]pyridine]	> 100 µM	< 4.00	> 100 µM	< 4.00	–	–	–	–	–	–
Clc1ccn2cc(Cl)nc2c1 [Compound 15, 2,7-Dichloro-imidazo[1,2-a] pyridine]	> 100 µM	< 4.00	> 100 µM	< 4.00	–	–	–	–	–	–
O[C@@H]1[C@@H](c2c(Cl)nc3cc(Cl)c(Cl)cn23)OC[C@@H]1O [Compound +28, 2,6,7-Trichloro-3-(β-L-erythrofuranosyl)imidazo[1,2-a]pyridine]	> 100 µM	< 4.00	> 100 µM	< 4.00	–	–	–	–	–	–
Nc1nc(O)c2ncn(COC(CO)CO)c2n1 [DHPG, ganciclovir, reference compound]	> 100 µM	–	–	5.13	–	–	–	–	–	–
